ChEMBL document CHEMBL5223177, “Pyrazole Ureas as Low Dose, CNS Penetrant Glucosylceramide Synthase Inhibitors for the Treatment of Parkinson's Disease” (ACS Med Chem Lett, 2023)
Where a chain is given by its changes, count along the chain named. Activity calls are given as the source filed them. The calls are words filed in the database; no cut-off is given here.

What was measured:
[1] = biological target: Neuronal acetylcholine receptor subunit alpha-3 (Homo sapiens, UniProt P30926+P32297); assay: Inhibition of human alpha3beta4 nAChR
Sequence of Neuronal acetylcholine receptor subunit alpha-3 (P32297 whole entry, one chain of several): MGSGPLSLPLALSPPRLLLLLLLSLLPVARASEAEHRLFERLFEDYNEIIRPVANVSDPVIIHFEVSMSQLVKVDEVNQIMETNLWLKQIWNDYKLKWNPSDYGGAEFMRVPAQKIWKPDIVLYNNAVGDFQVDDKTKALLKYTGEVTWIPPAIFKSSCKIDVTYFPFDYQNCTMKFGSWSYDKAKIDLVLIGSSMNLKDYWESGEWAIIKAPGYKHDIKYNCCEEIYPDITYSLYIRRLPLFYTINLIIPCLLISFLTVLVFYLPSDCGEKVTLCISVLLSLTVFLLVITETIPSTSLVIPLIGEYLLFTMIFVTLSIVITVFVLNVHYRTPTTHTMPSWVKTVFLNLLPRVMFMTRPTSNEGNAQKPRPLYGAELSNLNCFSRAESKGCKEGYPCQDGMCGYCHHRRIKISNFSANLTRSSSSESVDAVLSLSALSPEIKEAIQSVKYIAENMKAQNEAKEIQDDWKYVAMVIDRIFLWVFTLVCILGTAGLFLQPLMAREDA

[2] = biological target: T1, Muscarinic acetylcholine receptor M5 (Homo sapiens, UniProt P08912); assay: Inhibition of human muscarinic M5 receptor
T1 sequence (P08912 whole entry): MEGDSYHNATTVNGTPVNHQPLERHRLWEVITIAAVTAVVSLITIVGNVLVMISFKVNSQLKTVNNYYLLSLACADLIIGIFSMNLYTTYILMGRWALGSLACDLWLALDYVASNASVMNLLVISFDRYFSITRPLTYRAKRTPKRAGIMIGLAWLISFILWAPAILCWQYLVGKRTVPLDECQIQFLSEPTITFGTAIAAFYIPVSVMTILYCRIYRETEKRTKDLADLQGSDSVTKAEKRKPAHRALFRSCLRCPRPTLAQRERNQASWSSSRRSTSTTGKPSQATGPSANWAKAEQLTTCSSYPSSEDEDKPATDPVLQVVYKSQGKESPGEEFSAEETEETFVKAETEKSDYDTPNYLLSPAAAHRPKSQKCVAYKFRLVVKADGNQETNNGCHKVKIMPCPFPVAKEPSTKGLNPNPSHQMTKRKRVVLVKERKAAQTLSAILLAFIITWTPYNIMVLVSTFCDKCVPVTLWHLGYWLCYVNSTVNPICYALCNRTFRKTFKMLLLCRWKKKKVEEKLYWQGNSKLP

[3] = Half life in dog; assay type: ADME, Canis lupus familiaris; settings: in vivo
[4] = Mean residence time in rat at 5 to 10 mg/kg, po or 0.05 to 2 mg/kg, iv; assay type: ADME, organism-based; settings: in vivo, dose 5-10 mg/kg
[5] = Protection against PFFs induced alpha-synuclein aggregation in human iPSC derived neurons assessed as reduction in phosphorylated S129 alpha-synuclein level pretreated for 1 day followed by PFFs stimulation and measured after 14 days by immunocytochemistry analysis; assay type: functional, cell-based; settings: Neuron
[6] = biological target: T2, Nuclear receptor subfamily 1 group I member 2 (Homo sapiens, UniProt O75469); assay: Activation of PXR (unknown origin)
T2 sequence (O75469 whole entry): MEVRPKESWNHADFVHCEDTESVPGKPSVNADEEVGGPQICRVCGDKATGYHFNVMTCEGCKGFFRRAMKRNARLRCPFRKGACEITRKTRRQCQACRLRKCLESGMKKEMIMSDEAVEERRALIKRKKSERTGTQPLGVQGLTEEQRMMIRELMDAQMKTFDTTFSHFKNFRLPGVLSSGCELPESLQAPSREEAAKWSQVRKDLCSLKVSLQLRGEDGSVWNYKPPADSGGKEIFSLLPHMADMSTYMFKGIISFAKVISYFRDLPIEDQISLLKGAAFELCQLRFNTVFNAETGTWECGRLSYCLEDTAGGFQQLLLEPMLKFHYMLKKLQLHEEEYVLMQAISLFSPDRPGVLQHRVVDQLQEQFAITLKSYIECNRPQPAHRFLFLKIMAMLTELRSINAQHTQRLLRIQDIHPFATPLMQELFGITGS

[7] = Unbound brain-to-plasma concentration ratio in rat at 5 mg/kg, po after 2 hrs; assay type: ADME, organism-based; settings: read-out: K(p,uu,brain)
[8] = Unbound volume of distribution at steady state in dog; assay type: ADME, Canis lupus familiaris; settings: in vivo
[9] = Bioavailability in rat; assay type: ADME, organism-based; settings: in vivo
[10] = Unbound fraction in human plasma; assay type: ADME, cell-free
[11] = biological target: T3, Ceramide glucosyltransferase (Homo sapiens, UniProt Q16739); assay: (§1) Inhibition of GCS in human iPSC derived neurons assessed as reduction in […] GlcCer levels; assay type: cell-based, Neuron
T3 sequence (Q16739 whole entry): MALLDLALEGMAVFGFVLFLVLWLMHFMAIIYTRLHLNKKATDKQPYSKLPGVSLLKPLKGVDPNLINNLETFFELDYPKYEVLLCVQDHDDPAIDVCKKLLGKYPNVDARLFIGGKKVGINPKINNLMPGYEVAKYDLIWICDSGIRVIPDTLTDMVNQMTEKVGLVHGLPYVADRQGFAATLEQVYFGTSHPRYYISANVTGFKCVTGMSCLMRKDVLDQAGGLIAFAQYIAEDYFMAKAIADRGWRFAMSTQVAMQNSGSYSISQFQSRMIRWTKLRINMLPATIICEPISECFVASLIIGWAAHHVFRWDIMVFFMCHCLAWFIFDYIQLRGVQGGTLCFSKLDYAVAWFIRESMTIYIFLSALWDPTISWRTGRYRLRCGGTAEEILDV

[12] = biological target: T4, Ceramide glucosyltransferase (Homo sapiens) (UniProt Q16739); assay: as §1; assay type: cell-based; settings: Neuron
T4 sequence (whole entry): T3 sequence (Q16739 whole entry)

[13] = test system: Neuron; assay: Protection against PFFs induced lysosomal impairment in human iPSC derived neurons assessed as increase in lysosomal hydrolysis pretreated for 1 day followed by PFFs stimulation and measured after 14 days by immunocytochemistry analysis; assay type: functional, cell-based; settings: time 15.0 day
[14] = Protection against PFFs induced alpha-synuclein aggregation in human iPSC derived neurons assessed as reduction in phosphorylated S129 alpha-synuclein level at 1000 nM pretreated for 1 day followed by PFFs stimulation and measured after 14 days by immunocytochemistry analysis; assay type: functional, Neuron; set-up: scale not given: the % may be the effect or the level left; settings: time 15 day
[15] = biological target: T5, Ceramide glucosyltransferase (Mus musculus) (UniProt O88693); assay: In vivo inhibition of GCS in C57 mouse assessed as reduction in brain GlcCer d18:1/18:0 concentration at 30 to 100 mg/kg, po measured after 8 hrs by LC-MS/MS method; assay type: functional, organism-based; settings: dose 30-100 mg/kg
T5 sequence (whole entry): T3 sequence (Q16739 whole entry) with L8Q, V13L, L20V, A29S, G131A, Y196S, A251S

[16] = biological target: T5, Ceramide glucosyltransferase (Mus musculus); assay: (§2) In vivo inhibition of GCS in C57 mouse assessed as reduction in brain GlcCer d18:1/18:0 concentration measured after 8 hrs by LC-MS/MS method; assay type: functional
[17] = biological target: T6, Ceramide glucosyltransferase (Mus musculus, UniProt O88693); assay: as §2; assay type: functional
T6 sequence (O88693 whole entry): T3 sequence (Q16739 whole entry) with L8Q, V13L, L20V, A29S, G131A, Y196S, A251S

SMILES | IC50 [1] | IC50 [2] | half-life [3] | MRT [4] | IC50 [5] | EC50 [6] | Kp uu at 2 h [7] | fVdss [8] | bioavailability [9] | fraction unbound [10] | IC50 [11] | inhibition [12] | Activity [13] | Activity [14] | Activity [15] | Activity [16] | fEC50 [16] | EC50 [17]
Cl.O=C(N1CCN2CCC1CC2)n1nc(-n2cc(C(F)(F)F)cn2)c2c1COCC2 | 2200 nM | 10200 nM | 8.2 h | 5.3 h | 17 nM | > 30000 nM | 1.3 | 49 L/kg | 95% | 0.03 | 1.7 nM | Dose-Dependent Effect | Dose-Dependent Effect | 20% |  |  |  | 
O=C(N1CCN2CCC1CC2)n1nc(-c2ccc(F)cc2)c2c1COCC2 | 2200 nM | 10200 nM | 2.4 h | 3.5 h |  | > 30000 nM | 0.4 | 21 L/kg | 73% | 0.03 |  |  |  |  | Active | Dose-Dependent Effect | 64 nM | 320 nM
